This is an account of results in ChEMBL document CHEMBL4130440, “Isolation, Synthesis, and Biological Activity of Chlorinated Alkylresorcinols from Dictyostelium Cellular Slime Molds” (J Nat Prod, 2017).

Data set [1] concerns Jurkat. The experiment in a line: Immunosuppressive activity in human Jurkat cells assessed as inhibition of concanavalin A-induced IL-2 production at 20 uM pretreated for 30 mins followed by concanavalin A stimulation after 12 hrs by immunoassay relative to control. It is filed as functional.
Data set [2] relates to Jurkat. The experiment in a line: Cytotoxicity against concanavalin A-induced human Jurkat cells assessed as reduction in cell viability up to 20 uM pretreated for 30 mins followed by concanavalin A stimulation after 12 hrs by MTT assay. It is filed as cell-based. A general note: Tetrazolium assays rely on reduction of a dye to a coloured formazan, in cell work by metabolically active cells.

Data set [3] concerns Jurkat. The experiment in a line: Immunosuppressive activity in human Jurkat cells assessed as inhibition of concanavalin A-induced IL-2 production pretreated for 30 mins followed by concanavalin A stimulation after 12 hrs by immunoassay. It is filed as functional, cell-based.

pIC50: −log10 of the molar value.

The term inhibition denotes the share of the control response that was lost under treatment. `CCCCCC[C@H]1C[C@H]1CCCCCCCc1cc(O)c(Cl)c(O)c1`: in data set [1], the inhibition at 20 µM is less than 50%.
The same measure, in the same setting: in the case of `CCCCCC/C=C\CC/C=C\CCCc1cc(O)c(Cl)c(O)c1` it was less than 50%; in that of `CCCCCCCCCCCCCCCc1cc(O)c(Cl)c(O)c1`, less than 50%.
In the case of `CCCCCCCCCCCCCCc1cc(O)c(Cl)c(O)c1`, in data set [1], the inhibition at 20 µM is less than 50%.
On the same count and under the same terms, to `CCCCCC/C=C\CCCCCc1cc(O)c(Cl)c(O)c1` belongs less than 50%; to `CCCCCC[C@H]1C[C@H]1CCCCCc1cc(O)c(Cl)c(O)c1`, less than 50%.
Take `CCCCCC/C=C\CCCCCCCc1cc(O)c(Cl)c(O)c1`: in data set [1], the inhibition at 20 µM was less than 50%.
The pIC50 is −log10 of the IC50, conventionally taken in molar units. Consider `CCCCCCCCCCCCCc1cc(O)c(Cl)c(O)c1`, for which the Activity result in data set [2] was “Non-Toxic”. In data set [1], the inhibition at 20 µM is less than 50%. In data set [3], the negative logarithm of the IC50 (pIC50) was 4.80 and the inhibition result is “Dose-dependent effect”.
